{
  "source": "patent US20100204149A1",
  "about": "“USE OF OCTREOTIDE AS A THERAPEUTIC AGENT” (priority 2007, published 2010)",
  "tested_on": "drug-resistant Mycobacterium tuberculosis",
  "conditions": "5 micrograms per ml",
  "data": [
    {"smiles": "C[C@@H](O)[C@@H]1NC(=O)[C@H](CCCCN)NC(=O)[C@@H](Cc2c[nH]c3ccccc23)NC(=O)[C@H](Cc2ccccc2)NC(=O)[C@@H](NC(=O)[C@H](N)Cc2ccccc2)CSSC[C@@H](C(=O)N[C@H](CO)[C@@H](C)O)NC1=O", "note": "[Octreotide, H-D-Phe-Cys-Phe-D-Trp-Lys-Thr-Cys-L-threoninol]", "values": [
      {"measurement": "% inhibition", "value": 100.0, "unit": "%"}
    ]}
  ]
}
